US8501732B2, “Aminomethyl quinolone compounds” (Hoffmann-La Roche Inc., priority 2011, dated 2013)

Key:
[1] = tested on: phospho(Ser63)-c-jun in HK-2 cells; experiment: Cell-Based Assay for JNK Inhibitors (in-cell ELISA, phospho(Ser63)-c-jun after TNFα); conditions: HK-2 cells (human proximal tubule cells), 60 minutes compound, then 10 ng/mL TNFα for 30 minutes
Summary of the method: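 HK-2 human proximal tubule cells were seeded at 40,000 cells/well, cultured 24 h, then serum-starved 16–24 h before TNFα stimulation with compound. Phospho(Ser63)-c-jun was quantified by in-cell ELISA on fixed, permeabilised cells, using a rabbit phospho-specific primary (overnight, 4 °C) and an HRP-linked anti-rabbit secondary. Absorbance was read at 450 nm.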

[2] = target: JNK1 (Homo sapiens (Human), UniProt P45983); experiment: In Vitro JNK1 Assay (TR-FRET, phosphorylation of GST-c-Jun); assay type: biochemical; conditions: 0.2 nM active JNK1 kinase, 26.7 nM GST-c-Jun, 2 μM ATP, 30 min at room temperature
Summary of the method: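 GST-c-Jun (residues 1-79) phosphorylation by JNK1 in 50 mM HEPES pH 7.0, MgCl2, 1 mM DTT, 0.1 mM Na3VO4, 0.2 mg/mL BSA, 30 min at room temperature. Stopped with EDTA plus anti-phospho-c-Jun antibody and read by TR-FRET 1 hr later. IC50 from percent inhibition over 10 serial dilutions.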

Sequence of JNK1 (P45983 whole entry, the tested form may be a part): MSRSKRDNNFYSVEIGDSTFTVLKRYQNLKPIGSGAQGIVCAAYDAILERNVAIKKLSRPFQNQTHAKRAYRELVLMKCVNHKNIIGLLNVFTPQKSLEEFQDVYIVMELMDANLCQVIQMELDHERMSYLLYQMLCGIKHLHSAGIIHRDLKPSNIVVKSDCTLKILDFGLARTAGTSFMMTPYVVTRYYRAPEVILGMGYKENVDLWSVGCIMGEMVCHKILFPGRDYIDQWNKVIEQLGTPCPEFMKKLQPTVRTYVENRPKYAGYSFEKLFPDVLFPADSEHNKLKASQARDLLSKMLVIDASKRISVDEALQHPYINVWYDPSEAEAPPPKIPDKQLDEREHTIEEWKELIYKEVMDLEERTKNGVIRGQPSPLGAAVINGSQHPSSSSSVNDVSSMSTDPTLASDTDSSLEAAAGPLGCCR

| SMILES | EC50 [1] | IC50 [2] |
| --- | --- | --- |
| COC(=O)c1c(CNC(=O)c2ccccc2F)c(=O)c2ccc(Cl)cc2n1-c1ccccc1 [Example I-145, 7-Chloro-3-[(2-fluoro-benzoylamino)-methyl]-4-oxo-1-phenyl-1,4-dihydro-quinoline-2-carboxylic acid methyl ester] | 100 µM | 0.065 µM |
| COC(=O)c1c(CNC(=O)c2ccc(-c3nnn(C)n3)cc2)c(=O)c2ccc(C(F)(F)F)nc2n1-c1ccccc1 [Example I-157, 3-{[4-(2-Methyl-2H-tetrazol-5-yl)-benzoylamino]-methyl}-4-oxo-1-phenyl-7-trifluoromethyl-1,4-dihydro-[1,8]-naphthyridine-2-carboxylic acid methyl ester] | 16 µM | 0.038 µM |
| COC(=O)c1c(CNC(=O)c2ccc(Cl)c(Cl)c2)c(=O)c2ccc(C(F)(F)F)nc2n1-c1ccccc1 [Example I-159, 3-[(3,4-Dichloro-benzoylamino)-methyl]-4-oxo-1-phenyl-7-trifluoromethyl-1,4-dihydro-[1,8]naphthyridine-2-carboxylic acid methyl ester] | 43 µM | 0.17 µM |
| COC(=O)c1c(CNC(=O)c2cccc(Cl)c2)c(=O)c2ccc(OC)cc2n1-c1ccccc1 [Example I-160, 3-[(3-Chloro-benzoylamino)-methyl]-7-methoxy-4-oxo-1-phenyl-1,4-dihydro-quinoline-2-carboxylic acid methyl ester] | 22 µM | 0.026 µM |
| COC(=O)c1c(CNC(=O)c2cccc(OC)c2)c(=O)c2ccc(OC)cc2n1-c1ccccc1 [Example I-161, 7-Methoxy-3-[(3-methoxy-benzoylamino)-methyl]-4-oxo-1-phenyl-1,4-dihydro-quinoline-2-carboxylic acid methyl ester] | 18 µM | 0.032 µM |
| COC(=O)c1c(CNC(=O)c2ccc(F)c(F)c2)c(=O)c2ccc(OC)cc2n1-c1ccccc1 [Example I-162, 7-Methoxy-3-[(3,4-difluorobenzoylamino)-methyl]-4-oxo-1-phenyl-1,4-dihydro-quinoline-2-carboxylic acid methyl ester] | 38 µM | 0.039 µM |
| COC(=O)c1c(CNC(=O)c2ccc(C(C)(C)C)cc2)c(=O)c2ccc(OC)cc2n1-c1ccccc1 [Example I-163, 3-[(4-tert-Butyl-benzoylamino)-methyl]-7-methoxy-4-oxo-1-phenyl-1,4-dihydro-quinoline-2-carboxylic acid methyl ester] | 14 µM | 0.047 µM |
| COC(=O)c1c(CNC(=O)c2cccnc2)c(=O)c2ccc(OC)cc2n1-c1ccccc1 [Example I-165, 7-Methoxy-4-oxo-1-phenyl-3-{[(pyridine-3-carbonyl)-amino]-methyl}-1,4-dihydro-quinoline-2-carboxylic acidmethyl ester] | 100 µM | 0.065 µM |
| COC(=O)c1c(CNC(=O)c2ccc(F)cc2)c(=O)c2ccc(OC)cc2n1-c1ccccc1 [Example I-166, 3-[(4-Fluoro-benzoylamino)-methyl]-7-methoxy-4-oxo-1-phenyl-1,4-dihydro-quinoline-2-carboxylic acid methyl ester] | 100 µM | 0.073 µM |
| COC(=O)c1c(CNC(=O)c2ccc(Cl)cc2)c(=O)c2ccc(OC)cc2n1-c1ccccc1 [Example I-168, 3-[(4-Chloro-benzoylamino)-methyl]-7-methoxy-4-oxo-1-phenyl-1,4-dihydro-quinoline-2-carboxylic acid methyl ester] | 32 µM | 0.1 µM |
| COC(=O)c1c(CNC(=O)c2ccc(Cl)nc2)c(=O)c2ccc(F)cc2n1-c1ccccc1 [Example I-170, 3-{[(6-Chloro-pyridine-3-carbonyl)-amino]-methyl}-7-fluoro-4-oxo-1-phenyl-1,4-dihydroquinoline-2-carboxylic acid methyl ester] | 44 µM | 0.01 µM |
| COc1cc2ncnc(NCc3cn(-c4ccccc4)c4cc(Cl)ccc4c3=O)c2cc1OC [Example I-171, 7-Chloro-3-[(6,7-dimethoxy-quinazolin-4-ylamino)-methyl]-1-phenyl-1H-quinolin-4-one] | 88 µM | 0.023 µM |
| O=c1c(CNc2ncnc3cc(F)ccc23)cn(-c2ccccc2)c2cc(Cl)ccc12 [Example I-172, 7-Chloro-3-[(7-fluoro-quinazolin-4-ylamino)-methyl]-1-phenyl-1H-quinolin-4-one] | 100 µM | 0.079 µM |

Further lines, results first:

| EC50 [1] | IC50 [2] | SMILES |
| --- | --- | --- |
| 8.8 µM | 0.048 µM | COC(=O)c1c(CNC(=O)c2ccc(Cl)c(Cl)c2)c(=O)c2ccc(Cl)cc2n1-c1ccccc1 [Example I-144, 7-Chloro-3-[(3,4-dichloro-benzoylamino)-methyl]-4-oxo-1-phenyl-1,4-dihydro-quinoline-2-carboxylic acid methyl ester] |
| 7.7 µM | 0.012 µM | COC(=O)c1c(CNC(=O)c2ccccc2)c(=O)c2ccc(Cl)cc2n1-c1ccccc1 [Example I-150, 7-Chloro-3-[(benzoylamino)-methyl]-4-oxo-1-phenyl-1,4-dihydro-quinoline-2-carboxylic acid methyl ester] |
| 14 µM | 0.039 µM | COC(=O)c1c(CNC(=O)c2ccccc2)c(=O)c2ccccc2n1-c1ccccc1 [Example I-151, 3-(Benzoylamino-methyl)-4-oxo-1-phenyl-1,4-dihydro-quinoline-2-carboxylic acid methyl ester] |
| 7.8 µM | 0.018 µM | COC(=O)c1c(CNC(=O)c2ccc(N3CCOCC3)nc2)c(=O)c2ccc(C(F)(F)F)nc2n1-c1ccccc1 [Example I-152, 3-{[(6-Morpholin-4-yl-pyridine-3-carbonyl)-amino]-methyl}-4-oxo-1-phenyl-7-trifluoromethyl-1,4-dihydro-[1,8]naphthyridine-2-carboxylic acid methyl ester] |
| 4.6 µM | 0.023 µM | COC(=O)c1c(CNC(=O)c2ccc(-c3ncc[nH]3)cc2)c(=O)c2ccc(C(F)(F)F)nc2n1-c1ccccc1 [Example I-153, 3-{[4-(1H-Imidazol-2-yl)-benzoylamino]-methyl}-4-oxo-1-phenyl-7-trifluoromethyl-1,4-dihydro-[1,8]naphthyridine-2-carboxylic acid methyl ester] |
| 9.9 µM | 0.026 µM | COC(=O)c1c(CNC(=O)c2ccc(S(N)(=O)=O)cc2)c(=O)c2ccc(C(F)(F)F)nc2n1-c1ccccc1 [Example I-154, 4-Oxo-1-phenyl-3-[(4-sulfamoyl-benzoylamino)-methyl]-7-trifluoromethyl-1,4-dihydro-[1,8]naphthyridine-2-carboxylic acid methyl ester] |
| 14 µM | 0.027 µM | COC(=O)c1c(CNC(=O)c2ccc(C(N)=O)cc2)c(=O)c2ccc(C(F)(F)F)nc2n1-c1ccccc1 [Example I-155, 3-[(4-Carbamoyl-benzoylamino)-methyl]-4-oxo-1-phenyl-7-trifluoromethyl-1,4-dihydro-[1,8]naphthyridine-2-carboxylic acid methyl ester] |
| 8.7 µM | 0.03 µM | COC(=O)c1c(CNC(=O)c2ccc(-c3ccn[nH]3)cc2)c(=O)c2ccc(C(F)(F)F)nc2n1-c1ccccc1 [Example I-156, 4-Oxo-1-phenyl-3-{[4-(2H-pyrazol-3-yl)-benzoylamino]-methyl}-7-trifluoromethyl-1,4-dihydro-[1,8]naphthyridine-2-carboxylic acid methyl ester] |
| 10 µM | 0.079 µM | COC(=O)c1c(CNC(=O)c2ccc3cc[nH]c3c2)c(=O)c2ccc(C(F)(F)F)nc2n1-c1ccccc1 [Example I-158, 3-{[(1H-Indole-6-carbonyl)-amino]-methyl}-4-oxo-1-phenyl-7-trifluoromethyl-1,4-dihydro-[1,8]naphthyridine-2-carboxylic acid methyl ester] |
| 8.9 µM | 0.054 µM | COC(=O)c1c(CNC(=O)c2ccc(OC)cc2)c(=O)c2ccc(OC)cc2n1-c1ccccc1 [Example I-164, 3-[(4-methoxy-benzoylamino)-methyl]-7-methoxy-4-oxo-1-phenyl-1,4-dihydro-quinoline-2-carboxylic acid methyl ester] |
| 2.4 µM | 0.004 µM | COC(=O)c1c(CNC(=O)c2ccc(N3CCOCC3)nc2)c(=O)c2ccc(F)cc2n1-c1ccccc1 [Example I-169, 7-Fluoro-3-{[(6-morpholin-4-yl-pyridine-3-carbonyl)-amino]-methyl}-4-oxo-1-phenyl-1,4-dihydro-quinoline-2-carboxylic acid methyl ester] |
| 8.4 µM | 0.06 µM | COC(=O)c1c(CNc2ncnc3ccccc23)c(=O)c2ccc(Cl)cc2n1-c1ccccc1 [Example I-208, 7-Chloro-4-oxo-1-phenyl-3-(quinazolin-4-ylaminomethyl)-1,4-dihydro-quinoline-2-carboxylic acid methyl ester] |
